# In patent US12605350B2, “Composition for preventing, ameliorating, or treating disease caused by nitration of tyrosine in proteins comprising tyrosine as effective component” (INDUSTRY-ACADEMIC COOPERATION FOUNDATION GYEONGSANG …, priority 2020, dated 2026):
# Entries after “also recorded” stand apart in the source; their conditions may differ.
# Experiments:
# [1] = system: acute renal failure caused by kidney ischemia or reperfusion injury; test: plasma creatinine (Jaffe method), renal ischemia and reperfusion; assay type: in vivo, mouse; conditions: L-tyrosine 100 mg/kg oral for 4 days, 24 hours after ischemia and reperfusion
# Experimental: C57BL/6 male mouse (23 to 25 g, KOATECH, South Korea) was allowed to have free access to diets and water in sterile breeding room with constant temperature and humidity. The animals were divided into 3 test groups, i.e., 1) Control group (Sham), 2) Renal ischemia having treatment with prepared solvent and induced reperfusion group (CMC+IR), and 3) Renal ischemia having treatment with L-tyrosine and induced reperfusion group (L-Tyr+IR). L-Tyrosine (100 mg/kg) was suspended in 0.5% CMC (carboxymethyl cellulose). The animal was orally administered, once a day for 4 days, with L-tyrosine or the prepared solvent CMC. Thirty minutes after the oral administration on Day 4, renal ischemia was caused. Specifically, the animal abdomen was cut and renal pedicles at both sides were clamped using a Muller atraumatic vascular clamp to cause renal ischemia. […] Blood collected in the above was centrifuged for 15 minutes at 3,000 rpm to separate plasma, and blood creatinine was measured by using Jaffe method. With regard to Jaffe method, based on a difference between the absorbance measured at a wavelength of 510 nm after the reaction of plasma sample with picric acid and the absorbance measured after completing the reaction using 60% acetic acid, the amount of creatinine was calculated and it was expressed in unit of mg/dl.
# [2] = system: mouse model of chronic immobilization stress; test: object location recognition test (OLT); assay type: in vivo; conditions: D-Tyr-containing diet (181 mg D-Tyr/kg AIN-93G), chronic stress 14 days
# Experimental: Twenty-eight C57BL/6 male mice (7-week old) were divided into two groups, each group provided for 1 week with a normal diet or D-tyrosine (D-Tyr)-containing diet (181 mg D-Tyr/kg AIN-93G).
# Once the animals become 8-week old, they were applied with chronic immobilization stress (CIS) under light condition of 200 lux, 2 hours per day for 2 weeks. The animals were divided into the control group (CTL), D-Tyr diet control group (CTL+D-Tyr), chronic stress group (STR), and D-Tyr diet chronic stress group (STR+D-Tyr), in which each group consists of 7 animals.
# Upon the completion of the CIS for 2 weeks, a cognitive function test was carried out. To compare the cognitive function between the group provided with D-Tyr-containing diet over the entire test period including habituation period and normal feed diet group, an object recognition test (ORT) and an object location recognition test (OLT) for testing long-term memory skills were carried out.
# OLT: 24 Hours after carrying out ORT, location of a familiar object was changed, and the animal was allowed to explore for 5 minutes. According to the same method as the aforementioned object recognition function index (DI), ratio of time spent for exploring an object with changed location compared to the entire time for exploring an object was calculated. Accordingly, object location recognition function index was obtained.
# [3] = system: chronic immobilization stress group (STR); test: ROS/RNS in plasma and PFC, chronic immobilization stress; assay type: in vivo, mouse; conditions: tyrosine diet (181.2 mg/kg) compared to normal diet
# Experimental: Each of the blood and PFC sample was obtained from a mouse anesthetized with CO2 gas. Specifically, mouse blood was collected between 9 AM and 11 AM and stored in a K3EDTA-coated vacuum container. Plasma was obtained by centrifuge for 10 minutes at 4° C., 500×g. PFC sample was weighed first, and, after lysis of the tissues by using Bullet homogenizer, subjected to centrifuge for 20 minutes at 4° C., 12,000 rpm. Thus-obtained plasma and tissue lysate were kept at −80° C. until use. After that, the animal was sacrificed, and a change in corticosterone amount in plasma was examined. ROS/RNS in plasma and PFC was also examined. The corticosterone amount was examined using an ELISA kit (Cayman) by following the manufacturer's protocol, and ROS/RNS was also examined using an ROS/RNS assay kit (Cell Biolabs, San Diego, CA, USA) by following the manufacturer's protocol. The animal models were divided into two groups (i.e., normal group and stress group). The animal of stress group was individually brought by force to a restrainer for 2 hours every day (i.e., between 2 PM and 4 PM) so that it was applied with chronic immobilization stress for 15 days. Change in bodyweight and food intake amount were measured every other day. The normal group and stress group were divided again into a normal diet group and a tyrosine-supplemented diet group (181.2 mg/kg), and then fed.
# [4] = system: chronic immobilization stress group (STR); test: SPT (sucrose preference test) after chronic immobilization stress; assay type: in vivo, mouse; conditions: tyrosine diet (181.2 mg/kg) compared to normal diet, p<0.01
# Experimental: The animal models were divided into two groups (i.e., normal group and stress group). The animal of stress group was individually brought by force to a restrainer for 2 hours every day (i.e., between 2 PM and 4 PM) so that it was applied with chronic immobilization stress for 15 days. Change in bodyweight and food intake amount were measured every other day.
# The normal group and stress group were divided again into a normal diet group and a tyrosine-supplemented diet group (181.2 mg/kg), and then fed.
# For SPT (sucrose preference test), 0.1 M sucrose and water were provided for 48 hours so that the animals are habituated with them. After that, none of 0.1 M sucrose and water was provided for 24 hours, and then 0.1 M sucrose and water were provided again for 6 hours. Then, 0.1 M sucrose and water were moved to different positions for 3 hours.
# After that, consumption amount of sucrose and water was measured, and the sugar preference was calculated in terms of the ratio of provided sucrose compared to total consumption amount.
# [5] = system: mouse model of epileptic seizure which has been induced to have seizure by kainic acid; test: immunohistochemistry of hippocampal area (CA1, CA3): neurons (NeuN) and microglia (Iba1) after kainic acid; assay type: in vivo; conditions: tyrosine diet
# Experimental: Blood perfusion with PBS and PFA was carried out through animal heart, and the brain was removed and post-fixed in PFA for 15 hours or longer. After washing 3 times for 10 minutes with PBS, brain tissue specimen with thickness of 40 μm was obtained using a vibratome.
# In IHC buffer solution (PBS containing 0.3% Triton X-100) in which 3% bovine serum albumin is dissolved, the above-obtained brain specimen was blocked for 1 hour at room temperature and then reacted at 4° C. for 15 hours or longer with a primary antibody (anti-NeuN (Millipore, MAB377, 1:500), anti-Ibal (Wako, 019-19741, 1:200)) (IHC buffer solution containing 3% BSA). After washing 3 times, each for 10 minutes, with the IHC buffer solution, it was reacted with a flurolabeled secondary antibody (anti-Mouse IgG Alexa Fluor 488 (Invitrogen, 1:1000), anti-Rabbit IgG AlexaFluor594 (Invitrogen, […])) for 2 hours at room temperature (IHC buffer solution containing 3% BSA). After washing 3 times, each for 10 minutes, with the IHC buffer solution, the specimen was fixed on a silane-coated glass slide. An anti-fade solution containing DAPI was added onto the specimen and then dried after covering with a cover glass. Signal density of an image photographed with a fluorescent microscope was analyzed by using Image J analysis program.
SMILES,creatinine in plasma [1],cognitive function according to OTL (object location recognition function index) [2],ROS/RNS in PFC tissues [3],ROS/RNS in plasma [3],sugar preference [4],"activity of microglia in hippocampal area (CA1, CA3) [5]","number of the neuronal cells in hippocampal area (CA1, CA3) [5]"
N[C@@H](Cc1ccc(O)cc1)C(=O)O [L-tyrosine],suppressed,–,–,–,–,–,–
N[C@@H](Cc1ccc(O)cc1)C(=O)O [tyrosine],–,maintained at the level of the control group,statistically significant decrease in ROS/RNS,statistically significant decrease in ROS/RNS,statistically significant increase in the sugar preference,reduced; also recorded: significant decrease in the activity of microglia,maintained without a loss
